# Assay results: patent US9353090B2, “Heterocyclic carboxylic acids as activators of soluble guanylate cyclase” (Boehringer Ingelheim International GmbH, priority 2014, dated 2016)
# What was measured:
# [1] = biological target: human soluble guanylate cyclase alpha 1 and beta 1 subunits (sGC) (Homo sapiens (Human), UniProt Q02108+Q02153); assay: sGC cellular activator assay (cGMP, HTRF), in the presence and absence of 50% human serum; format: cell-based; settings: CHO cells stably expressing human sGC alpha 1/beta 1, preincubated with 40 microM ODQ; cGMP by HTRF; Table 2 does not state whether with or without 50% human serum
# Procedure, shortened: (§1)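 First, CHO-sGC (human α1β1) cells get 1 h ODQ at 40 microM with IBMX and 0.1% BSA. Finally, cGMP is quantified by HTRF and EC50 computed.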
# [2] = Human liver microsome (HLM) metabolic stability assay; format: in vitro ADME; settings: human liver microsomes
# Procedure, shortened: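 Remaining parent measured by LC/MS/MS (ESI, MRM) at 5, 15, 30 and 60 min relative to 0 min. Incubation: 1 uM compound, HLMs, NADPH-started, 37° C., 60 min total, single replicate. Slope of ln(% remaining) gives t1/2 = 0.693/slope, then CLint, CLh and % Qh.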
# [3] = 24 h
# [4] = biological target: human soluble guanylate cyclase alpha 1 and beta 1 subunits (sGC) (Homo sapiens (Human), UniProt Q02153); assay: sGC cellular activator assay (cGMP, HTRF), in the presence and absence of 50% human serum; format: cell-based; settings: CHO cells stably expressing human sGC alpha 1/beta 1, preincubated with 40 microM ODQ; cGMP by HTRF; Table 2 does not state whether with or without 50% human serum
# Procedure, shortened: as §1
# physchem = settings: kinetic from dmso stock
# [5] = pH 2.2, aqueous buffer, Solubility (pH 2.2)
# [6] = pH 4.5, aqueous buffer, Solubility (pH 4.5)
# [7] = pH 6.8, aqueous buffer, Solubility (pH 6.8)
# Sequence of human soluble guanylate cyclase alpha 1 and beta 1 subunits (sGC) (Homo sapiens (Human), UniProt Q02108+Q02153) (Q02108 whole entry partner): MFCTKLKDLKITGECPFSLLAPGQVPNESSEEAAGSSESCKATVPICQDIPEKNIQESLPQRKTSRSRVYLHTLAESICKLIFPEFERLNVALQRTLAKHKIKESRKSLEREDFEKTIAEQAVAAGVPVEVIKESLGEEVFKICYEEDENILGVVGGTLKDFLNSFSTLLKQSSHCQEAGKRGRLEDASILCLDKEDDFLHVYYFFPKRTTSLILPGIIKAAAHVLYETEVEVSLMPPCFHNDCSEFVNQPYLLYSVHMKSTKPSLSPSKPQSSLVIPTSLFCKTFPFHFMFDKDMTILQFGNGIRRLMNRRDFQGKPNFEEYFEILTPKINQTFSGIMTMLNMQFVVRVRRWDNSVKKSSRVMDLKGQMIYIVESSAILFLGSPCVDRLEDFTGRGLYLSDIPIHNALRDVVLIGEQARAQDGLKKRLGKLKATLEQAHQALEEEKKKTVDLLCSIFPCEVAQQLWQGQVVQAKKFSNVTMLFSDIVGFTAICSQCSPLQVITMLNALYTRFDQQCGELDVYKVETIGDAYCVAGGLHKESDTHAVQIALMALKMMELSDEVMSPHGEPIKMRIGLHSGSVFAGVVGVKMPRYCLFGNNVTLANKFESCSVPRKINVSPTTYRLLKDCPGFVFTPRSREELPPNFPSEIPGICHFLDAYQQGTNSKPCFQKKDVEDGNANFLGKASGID
# Sequence of human soluble guanylate cyclase alpha 1 and beta 1 subunits (sGC) (Homo sapiens (Human), UniProt Q02108+Q02153) (Q02153 whole entry): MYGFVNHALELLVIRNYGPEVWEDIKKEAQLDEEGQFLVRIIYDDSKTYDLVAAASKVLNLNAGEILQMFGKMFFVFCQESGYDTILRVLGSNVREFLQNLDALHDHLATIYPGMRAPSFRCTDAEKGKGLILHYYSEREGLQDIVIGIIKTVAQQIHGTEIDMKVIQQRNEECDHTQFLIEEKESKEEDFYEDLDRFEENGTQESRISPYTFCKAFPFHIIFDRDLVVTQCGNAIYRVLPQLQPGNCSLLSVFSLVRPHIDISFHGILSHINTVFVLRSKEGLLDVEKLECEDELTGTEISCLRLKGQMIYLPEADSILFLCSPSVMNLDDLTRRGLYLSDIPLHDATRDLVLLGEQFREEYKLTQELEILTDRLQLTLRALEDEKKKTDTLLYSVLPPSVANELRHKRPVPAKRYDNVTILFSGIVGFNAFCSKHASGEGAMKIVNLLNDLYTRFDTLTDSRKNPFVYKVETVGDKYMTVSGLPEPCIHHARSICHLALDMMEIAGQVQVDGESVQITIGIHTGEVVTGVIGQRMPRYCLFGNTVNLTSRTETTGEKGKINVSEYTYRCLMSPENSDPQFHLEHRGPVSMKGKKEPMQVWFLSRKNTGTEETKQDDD
# Sequence of human soluble guanylate cyclase alpha 1 and beta 1 subunits (sGC) (Homo sapiens (Human), UniProt Q02153) (Q02108 whole entry partner): as the sequence (Q02108 whole entry partner) above
# Sequence of human soluble guanylate cyclase alpha 1 and beta 1 subunits (sGC) (Homo sapiens (Human), UniProt Q02153) (Q02153 whole entry): as the sequence (Q02153 whole entry) above
EC50 [1] [µM],"Metabolic stability (Qh %), % hepatic blood flow [2] [%]",Solubility (pH 2.2) [3] [μg/mL],Solubility (pH 4.5) [3] [μg/mL],Solubility (pH 6.8) [3] [μg/mL],EC50 [4] [µM],solubility at 24 h (physchem; [5]) [µg/mL],solubility at 24 h (physchem; [6]) [µg/mL],solubility at 24 h (physchem; [7]) [µg/mL],SMILES
0.012,38,110,93,76,–,–,–,–,"COC[C@H]1N(c2cccc(-c3cccc(C)c3OCc3cc(C)c4c(c3)CCN(C3CCOC3)C4)n2)C[C@@H]2C[C@@]21C(=O)O (single isomer, unassigned) [Compound 52]"
0.029,<24,130,96,90,–,–,–,–,"CO[C@H]1CN(c2nc(-c3cccc(C)c3OCc3cc(C)c4c(c3)CCN(CC3COCCO3)C4)cs2)CC[C@H]1C(=O)O (single isomer, unassigned) [Compound 169]"
–,<24,140,120,60,0.003,–,–,–,Cc1c(COc2ccccc2-c2cccc(N3CC[C@@]4(C(=O)O)C[C@H]4C3)n2)ccc2c1CCN(C1CCOCC1)C2 [Compound 3]
0.016,<24,100,89,62,–,–,–,–,Cc1cc(COc2c(C)cccc2-c2cccc(N3C[C@@H]4C[C@]4(C(=O)O)C3)n2)cc2c1CN(C1CCOC1)CC2 (some centres unmarked) [Compound 25]
0.009,<24,110,90,67,–,–,–,–,Cc1cc(COc2c(C)cccc2-c2cccc(N3C[C@@H]4C[C@]4(C(=O)O)C3)n2)cc2c1CN(C1CCOC1)CC2 (some centres unmarked) [Compound 26]
0.026,<24,110,91,63,–,–,–,–,CO[C@@H]1CN(c2cccc(-c3cc(C)ccc3OCc3cc(C)c4c(c3)CCN(C3CCOC3)C4)n2)CC[C@@H]1C(=O)O (some centres unmarked) [Compound 78]
0.002,<24,140,70,51,–,–,–,–,Cc1cc(COc2c(C)cccc2-c2csc(N3CC[C@@]4(C(=O)O)C[C@H]4C3)n2)cc2c1CN(CC1COCCO1)CC2 (some centres unmarked) [Compound 93]
0.064,<24,140,95,89,–,–,–,–,CO[C@@H]1CN(c2nc(-c3cccc(C)c3OCc3cc(C)c4c(c3)CCN(CC3COCCO3)C4)cs2)CC[C@@H]1C(=O)O (some centres unmarked) [Compound 176]
0.529,<24,–,–,–,–,115,110,98.9,COC[C@H]1N(c2cccc(-c3cccc(C)c3OCc3cc(C)c4c(c3)OCCN(C3CCOCC3)C4)n2)C[C@@H]2C[C@@]21C(=O)O [Compound 314]
0.018,<24,–,–,–,–,137,135,119,CCOC[C@H]1N(c2cccc(-c3cccc(C)c3OCc3cc(C)c4c(c3)CCN(C3CCOCC3)C4)n2)C[C@@H]2C[C@@]21C(=O)O [Compound 315]
0.222,39,–,–,–,–,147,149,142,CCOC[C@@H]1N(c2cccc(-c3cccc(C)c3OCc3cc(C)c4c(c3)CCN(C3CCOCC3)C4)n2)C[C@@H]2C[C@@]21C(=O)O [Compound 316]
0.245,<24,–,–,–,–,158,152,139,COC[C@H]1N(c2cccc(-c3cccc(C)c3OCc3cnc4c(c3)CCN(C3CCOCC3)CC4)n2)C[C@@H]2C[C@@]21C(=O)O [Compound 317]
0.739,<24,–,–,–,–,151,123,73.7,COC[C@H]1N(c2cccc(-c3cccc(C)c3OCc3ccc4c(n3)CCN(C3CCOCC3)C4)n2)C[C@@H]2C[C@@]21C(=O)O [Compound 318]
0.001,25,–,–,–,–,109,60.2,55.4,CO[C@H]1CN(c2nc(-c3cccc(Cl)c3OCc3ccc4c(c3)[C@@H](C)CN(C3CCOCC3)CC4)cs2)CC[C@H]1C(=O)O [Compound 319]
0.004,26,–,–,–,–,115,60.6,46.4,CO[C@H]1CN(c2nc(-c3cccc(Cl)c3OCc3ccc4c(c3)[C@H](C)CN(C3CCOCC3)CC4)cs2)CC[C@H]1C(=O)O [Compound 320]
0.003,47,–,–,–,–,112,41.5,50.5,CO[C@H]1CN(c2nc(-c3cccc(Cl)c3OCc3ccc4c(c3)[C@@H](C)CN(C3COC3)CC4)cs2)CC[C@H]1C(=O)O [Compound 321]
0.007,47,–,–,–,–,110,36.4,60.2,CO[C@H]1CN(c2nc(-c3cccc(Cl)c3OCc3ccc4c(c3)[C@H](C)CN(C3COC3)CC4)cs2)CC[C@H]1C(=O)O [Compound 322]
0.002,45,–,–,–,–,131,84.3,65.2,CO[C@H]1CN(c2nc(-c3cccc(C)c3OCc3ccc4c(c3)C(C)(C)CN(C3CCOCC3)CC4)cs2)CC[C@H]1C(=O)O [Compound 323]
0.002,<24,–,–,–,–,134,103,77.5,CO[C@@H]1CN(c2cccc(-c3cccc(C)c3OCc3ccc4c(c3)C(C)(C)CN(C3CCOCC3)CC4)n2)CC[C@@H]1C(=O)O [Compound 324]
0.007,33,–,–,–,–,131,69.1,67.4,CO[C@H]1CN(c2nc(-c3cccc(C)c3OCc3ccc4c(c3)[C@@H](C)CN(C3COC3)CC4)cs2)CC[C@H]1C(=O)O [Compound 325]
0.001,59,–,–,–,–,129,91.1,71.6,CO[C@@H]1CN(c2cccc(-c3cccc(C)c3OCc3ccc4c(c3)C(C)(C)CN(C3COC3)CC4)n2)CC[C@@H]1C(=O)O [Compound 326]
0.005,61,–,–,–,–,99.8,51.8,59.1,CO[C@@H]1CN(c2nc(-c3cc(F)cc(C)c3OCc3ccc4c(c3C)CCN(C3COC3)CC4)cs2)CC[C@@H]1C(=O)O [Compound 327]
0.002,45,–,–,–,–,97.4,59.4,56.8,CO[C@@H]1CN(c2nc(-c3cc(F)cc(C)c3OCc3ccc4c(c3)[C@@H](C)CN(C3CCOCC3)CC4)cs2)CC[C@@H]1C(=O)O [Compound 328]
0.013,<24,–,–,–,–,103,63.9,68,CO[C@@H]1CN(c2nc(-c3cc(F)cc(C)c3OCc3ccc4c(c3C)CCN(C3CCOCC3)CC4)cs2)CC[C@@H]1C(=O)O [Compound 329]
0.015,<24,–,–,–,–,127,86.6,76.8,CO[C@@H]1CN(c2nc(-c3cccc(Cl)c3OCc3ccc4c(c3)[C@@H](C)CN(C3CCOCC3)CC4)cs2)CC[C@@H]1C(=O)O [Compound 332]
0.054,32,–,–,–,–,69.9,37.6,30,Cc1cccc(-c2cccc(N3CC[C@H](C(=O)O)[C@@H]4OCCC[C@H]43)n2)c1OCc1ccc2c(c1C)CCN(C1COC1)CC2 [Compound 336]
0.13,<24,–,–,–,–,113,80.5,78,Cc1cccc(-c2cccc(N3CC[C@H](C(=O)O)[C@@H]4OCCC[C@H]43)n2)c1OCc1ccc2c(c1C)CCN(C1CCOCC1)CC2 [Compound 337]
0.024,<24,–,–,–,–,132,106,73.6,CO[C@@H]1CN(c2cccc(-c3cccc(C)c3OCc3cc(C)c4c(c3)CN(C3CCOCC3)C4)n2)CC[C@@H]1C(=O)O [Compound 338]
